Test results: patent publication US8268848B2, “Cyclopropane compound” (Eisai R&D Management Co., Ltd., priority 2010, dated 2012)
Like-named read-outs stand apart in the source and are kept apart here.

Tests used:
OX1 = target: T1, OX1 (Homo sapiens, UniProt O43613); assay: Measurement of orexin receptor-binding ability ([125I]-OX-A, cell membranes, OX1); set-up: expressed in transfected cells; host or cells: CHO cells (membrane preparation)
T1 sequence (O43613 1-425): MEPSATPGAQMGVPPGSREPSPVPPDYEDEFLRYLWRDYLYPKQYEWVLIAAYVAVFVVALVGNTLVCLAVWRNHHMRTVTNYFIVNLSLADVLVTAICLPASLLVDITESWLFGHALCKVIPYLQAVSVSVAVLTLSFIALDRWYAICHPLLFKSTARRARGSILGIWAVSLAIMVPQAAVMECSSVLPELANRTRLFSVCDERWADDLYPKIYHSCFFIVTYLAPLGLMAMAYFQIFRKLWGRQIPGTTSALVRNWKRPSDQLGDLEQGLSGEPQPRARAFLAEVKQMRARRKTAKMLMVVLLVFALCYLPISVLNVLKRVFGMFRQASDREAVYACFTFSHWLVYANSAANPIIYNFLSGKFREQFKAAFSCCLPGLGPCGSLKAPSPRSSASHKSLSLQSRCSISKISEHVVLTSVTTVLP

OX2 = target: T2, OX2 (Homo sapiens, UniProt O43614); assay: Measurement of orexin receptor-binding ability ([125I]-OX-A, cell membranes, OX2); set-up: expressed in transfected cells; host or cells: CHO cells (membrane preparation); details: membranes of recombinant CHO cells expressing OX2, 0.2 nM [125I]-OX-A
T2 sequence (O43614 1-444): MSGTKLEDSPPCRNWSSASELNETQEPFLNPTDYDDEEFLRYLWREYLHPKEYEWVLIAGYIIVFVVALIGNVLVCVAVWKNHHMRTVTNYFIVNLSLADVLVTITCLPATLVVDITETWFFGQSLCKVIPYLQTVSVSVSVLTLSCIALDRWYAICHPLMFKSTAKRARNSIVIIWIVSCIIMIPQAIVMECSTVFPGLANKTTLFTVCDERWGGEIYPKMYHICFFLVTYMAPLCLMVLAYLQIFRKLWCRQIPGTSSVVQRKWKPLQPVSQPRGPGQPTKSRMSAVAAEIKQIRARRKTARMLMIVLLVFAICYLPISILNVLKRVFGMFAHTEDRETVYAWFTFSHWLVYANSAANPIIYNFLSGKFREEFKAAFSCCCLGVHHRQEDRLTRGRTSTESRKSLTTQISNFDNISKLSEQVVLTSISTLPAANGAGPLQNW

[1] = membranes of recombinant CHO cells expressing OX1, 0.2 nM [125I]-OX-A, read-out: OX1 (IC50)

SMILES | IC50 (OX1) [µM] | IC50 (OX2; OX2 (IC50) nM) [nM] | IC50 (OX1; [1]) [µM] | IC50 (OX2; read-out: OX2 (IC50)) [nM]
Cc1ncc(OC[C@@]2(c3cc(F)ccc3O)C[C@H]2C(=O)Nc2ccc(F)cn2)c(C)n1 [Example 324, (1R,2S)-2-{[(2,4-dimethylpyrimidin-5-yl)oxy]methyl}-2-(5-fluoro-2-hydroxyphenyl]-N-(5-fluoropyridin-2-yl)cyclopropanecarboxamide] | 0.113 | 5.9 | – | –
COc1ccc(C2(COc3cnc(C)nc3C)CC2C(=O)Nc2ccc(Cl)cn2)cc1 (stereo not drawn) [Example 182] | – | – | 0.099 | 21
Cc1ncc(OC[C@@]2(c3ccc(F)c(F)c3)C[C@H]2C(=O)Nc2ccc(C#N)cn2)c(C)n1 [Example 167, (1R,2S)-N-(5-cyanopyridin-2-yl)-2-(3,4-difluorophenyl)-2-{[(2,4-dimethylpyrimidin-5-yl)oxy]methyl}cyclopropanecarboxamide] | 0.038 | 10 | – | –
Cc1ncc(OC[C@@]2(c3ccccc3)C[C@H]2C(=O)Nc2cccc(N(C)C)c2)c(C)n1 [Example 19, (1R,2S)-N-[3-(dimethylamino)phenyl]-2-{[(2,4-dimethylpyrimidin-5-yl)oxy]methyl}-2-phenylcyclopropanecarboxamide] | – | – | 0.093 | 10
COCc1nc(C)ncc1OC[C@@]1(c2cccc(F)c2)C[C@H]1C(=O)Nc1ccccn1 [Example 193, (1R,2S)-2-(3-fluorophenyl)-2-{[(4-methoxymethyl-2-methylpyrimidin-5-yl)oxy]methyl}-N-(pyridin-2-yl)cyclopropanecarboxamide] | 0.036 | 8 | – | –
Cc1nc(C)[n+]([O-])cc1OC[C@@]1(c2cccc(F)c2)C[C@H]1C(=O)Nc1ccc(F)cn1 [Example 284] | 0.112 | 6 | – | –
Cc1ncc(OCC2(c3cccc(F)c3)CC2C(=O)Nc2cccnc2)c(C)n1 (stereo not drawn) [Example 99] | 0.644 | 58 | – | –
Cc1ncc(OC[C@@]2(c3cccc(F)c3)C[C@H]2c2nc3ncccc3c(=O)[nH]2)c(C)n1 [Example 312] | – | – | 0.136 | 62
CCc1ncc(OC[C@@]2(c3ccccc3)C[C@H]2C(=O)Nc2ccc(F)cn2)c(C)n1 [Example 313] | 0.224 | 107 | – | –
COCCc1nc(C)ncc1OC[C@@]1(c2cccc(F)c2)C[C@H]1C(=O)Nc1cc(C)c(F)cn1 [Example 229, (1R,2S)-N-(5-fluoro-4-methylpyridin-2-yl)-2-(3-fluorophenyl)-2-{[(4-methoxyethyl-2-methylpyrimidin-5-yl)oxy]methyl}cyclopropanecarboxamide] | 0.019 | 4 | – | –
CCc1nc(C)ncc1OC[C@@]1(c2ccccc2)C[C@H]1C(=O)Nc1ccccn1 [Example 118, (1R,2S)-2-{[(4-ethyl-2-methylpyrimidin-5-yl)oxy]methyl}-2-phenyl-N-(pyridin-2-yl)cyclopropanecarboxamide] | – | – | 0.342 | 24
Cc1ncc(OC[C@@]2(c3ccsc3)C[C@H]2C(=O)Nc2ccc(F)cn2)c(C)n1 [Example 270] | 0.264 | 58 | – | –
Cc1ncc(OC[C@@]2(c3ccccc3)C[C@H]2C(=O)Nc2cc(F)cc(F)n2)c(C)n1 [Example 76-1, (1R,2S)-N-(4,6-difluoropyridin-2-yl)-2-{[(2,4-dimethylpyrimidin-5-yl)oxy]methyl}-2-phenylcyclopropanecarboxamide] | 0.489 | 61 | – | –
Cc1ncc(OC[C@@]2(c3ccc(O)c(F)c3)C[C@H]2C(=O)Nc2ccc(F)cn2)c(C)n1 [Example 321, (1R,2S)-2-{[(2,4-dimethylpyrimidin-5-yl)oxy]methyl}-2-(3-fluoro-4-hydroxyphenyl)-N-(5-fluoropyridin-2-yl)cyclopropanecarboxamide] | 0.02 | 7 | – | –
Cc1ncc(OCC2(c3cccc(C(F)(F)F)c3)CC2C(=O)Nc2cccnc2)c(C)n1 (stereo not drawn) [Example 277] | – | – | 2.21 | 104
Cc1cccc(NC(=O)[C@@H]2C[C@@]2(COc2cnc(C)nc2C)c2ccccc2)n1 [Example 70] | 0.704 | 41 | – | –
Cc1ncc(OC[C@@]2(c3cccc(C#N)c3)C[C@H]2C(=O)Nc2cc(C)c(F)cn2)c(C)n1 [Example 117, (1R,2S)-2-(3-cyanophenyl)-2-{[(2,4-dimethylpyrimidin-5-yl)oxy]methyl}-N-(5-fluoro-4-methylpyridin-2-yl)cyclopropanecarboxamide] | – | – | 0.019 | 4
Cc1ncc(OC[C@@]2(c3cc(F)cc(F)c3)C[C@H]2C(=O)Nc2ccc(F)cc2F)c(C)n1 [Example 135, (1R,2S)-N-(2,4-difluorophenyl)-2-(3,5-difluorophenyl)-2-{[(2,4-dimethylpyrimidin-5-yl)oxy]methyl}cyclopropanecarboxamide] | – | – | 0.014 | 8
COCc1nc(C)ncc1OC[C@@]1(c2cccc(F)c2)C[C@H]1C(=O)Nc1ccc(F)cc1 [Example 192, (1R,2S)-2-(3-fluorophenyl)-N-(4-fluorophenyl)-2-{[(4-methoxymethyl-2-methylpyrimidin-5-yl)oxy]methyl}cyclopropanecarboxamide] | – | – | 0.012 | 5
Cc1ncc(OC[C@@]2(c3ccccc3)C[C@H]2C(=O)Nc2ccnc(F)c2)c(C)n1 [Example 18] | – | – | 0.344 | 33
COCc1nc(C)ncc1OC[C@@]1(c2cccc(F)c2)C[C@H]1C(=O)Nc1ccc(C#N)cn1 [Example 200] | 0.067 | 12 | – | –
COCc1nc(C)ncc1OC[C@@]1(c2ccc(F)c(F)c2)C[C@H]1C(=O)Nc1ccc(F)cc1 [Example 213] | – | – | 0.014 | 11
Cc1ncc(OC[C@@]2(c3ccccc3)C[C@H]2C(=O)Nc2cc(F)nc(F)c2)c(C)n1 [Example 76-2, (1R,2S)-N-(2,6-difluoropyridin-4-yl)-2-{[(2,4-dimethylpyrimidin-5-yl)oxy]methyl}-2-phenylcyclopropanecarboxamide] | – | – | 0.914 | 47
Cc1ncc(OC[C@@]2(c3ccccc3)C[C@H]2C(=O)Nc2cccc(CO)c2)c(C)n1 [Example 17] | – | – | 0.294 | 38
COc1cccc(C2(COc3cnc(C)nc3C)CC2C(=O)Nc2cccnc2)c1 (stereo not drawn) [Example 184] | – | – | 0.784 | 21
CCc1nc(C)ncc1OC[C@@]1(c2ccccc2)C[C@H]1C(=O)Nc1cncc(OC)c1 [Example 317] | – | – | 0.451 | 20
Cc1ncc(OC[C@@]2(c3ccccc3)C[C@H]2C(=O)Nc2ccc(Cl)cc2)c(C)n1 [Example 25] | – | – | 0.927 | 59
Cc1ncc(OC[C@@]2(c3cc(F)cc(F)c3)C[C@H]2C(=O)Nc2ccccn2)c(C)n1 [Example 131, (1R,2S)-2-(3,5-difluorophenyl)-2-{[(2,4-dimethylpyrimidin-5-yl)oxy]methyl}-N-(pyridin-2-yl)cyclopropanecarboxamide] | 0.089 | 5 | – | –
Cc1ncc(OC[C@@]2(c3ccccc3)C[C@H]2C(=O)Nc2cccc(C(F)(F)F)c2)c(C)n1 [Example 43, (1R,2S)-2-{[(2,4-dimethylpyrimidin-5-yl)oxy]methyl}-2-phenyl-N-[3-(trifluoromethyl)phenyl]cyclopropanecarboxamide] | – | – | 0.086 | 7
Cc1ncc(OCC2(c3ccccc3C)CC2C(=O)Nc2cccnc2)c(C)n1 (stereo not drawn) [Example 180] | – | – | 0.231 | 33
